Laboratory results taken from PubChem BioAssay AID256 (DTP/NCI, 2004).
Values joined by “and” are separate entries in the source; they are usually repeats but may differ in a detail not shown here. Equal entries are not always repeated. Inconclusive results and toxic doses are left out.

System: CD2F1 mice, L1210 leukemia ip, survival T/C
Experiment: NCI In Vivo Anticancer Drug Screen. Data for tumor model L1210 Leukemia (intraperitoneal) in CD2F1 (CDF1) mice
Conditions: higher = longer survival
How it was run: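 Read-out first: treated-group measurement over vehicle-control measurement, expressed as a ratio. Animals bore a transplanted tumor line and were dosed with compound or vehicle.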

[1] = endpoint: mean survival time, dose: 100.0 mg/kg/injection, schedule: Q04DX003 (ip), vehicle: saline with Tween-80
[2] = endpoint: mean survival time, dose: 200.0 mg/kg/injection, schedule: Q04DX003 (ip), vehicle: saline with Tween-80
[3] = endpoint: mean survival time, dose: 400.0 mg/kg/injection, schedule: Q04DX003 (ip), vehicle: saline with Tween-80
[4] = endpoint: mean survival time, dose: 100.0 mg/kg/injection, schedule: Q01DX009 (ip), vehicle: other
[5] = endpoint: mean survival time, dose: 200.0 mg/kg/injection, schedule: Q01DX009 (ip), vehicle: other
[6] = endpoint: mean survival time, dose: 25.0 mg/kg/injection, schedule: Q01DX009 (ip), vehicle: saline with Tween-80
[7] = endpoint: mean survival time, dose: 50.0 mg/kg/injection, schedule: Q01DX009 (ip), vehicle: saline with Tween-80
[8] = endpoint: mean survival time, dose: 100.0 mg/kg/injection, schedule: Q01DX009 (ip), vehicle: saline with Tween-80
[9] = endpoint: mean survival time, dose: 200.0 mg/kg/injection, schedule: Q01DX009 (ip), vehicle: saline with Tween-80
[10] = endpoint: mean survival time, dose: 200.0 mg/kg/injection, schedule: Q04DX003 (ip), vehicle: saline
[11] = endpoint: mean survival time, dose: 400.0 mg/kg/injection, schedule: Q01DX009 (ip), vehicle: saline with Tween-80

## CS(=O)(=O)OCCNc1ccc([N+](=O)[O-])cc1
endpoint: mean survival time, dose: 8.0 mg/kg/injection, schedule: Q01DX001 (ip), vehicle: saline
  T/C: 100 % of control
endpoint: mean survival time, dose: 10.0 mg/kg/injection, schedule: Q01DX010 (ip), vehicle: saline
  T/C: 103 % of control
endpoint: mean survival time, dose: 16.0 mg/kg/injection, schedule: Q01DX001 (ip), vehicle: saline
  T/C: 95 % of control
endpoint: mean survival time, dose: 30.0 mg/kg/injection, schedule: Q01DX010 (ip), vehicle: saline
  T/C: 113 % of control
endpoint: mean survival time, dose: 32.0 mg/kg/injection, schedule: Q01DX001 (ip), vehicle: saline
  T/C: 98 % of control
endpoint: mean survival time, dose: 64.0 mg/kg/injection, schedule: Q01DX001 (ip), vehicle: saline
  T/C: 90 % of control and 100 % of control
endpoint: mean survival time, dose: 100.0 mg/kg/injection, schedule: Q01DX010 (ip), vehicle: saline
  T/C: 119 % of control
endpoint: mean survival time, dose: 128.0 mg/kg/injection, schedule: Q01DX001 (ip), vehicle: saline
  T/C: 96 % of control
endpoint: mean survival time, dose: 256.0 mg/kg/injection, schedule: Q01DX001 (ip), vehicle: saline
  T/C: 96 % of control
endpoint: mean survival time, dose: 300.0 mg/kg/injection, schedule: Q01DX010 (ip), vehicle: saline
  T/C: 97 % of control

## O=CCCOCCCl
[1]
  T/C: 103 % of control
[2]
  T/C: 95 % of control
[3]
  T/C: 100 % of control

## CC(CCC(=O)O)(c1ccc(O)cc1)c1ccc(O)cc1
[4]
  T/C: 91 % of control
[5]
  T/C: 101 % of control
endpoint: mean survival time, dose: 400.0 mg/kg/injection, schedule: Q01DX009 (ip), vehicle: other
  T/C: 97 % of control

## COc1ccc(CC2=NCCN2)cc1
[6]
  T/C: 98 % of control
[7]
  T/C: 98 % of control
[8]
  T/C: 98 % of control

## NC(=O)c1ncn(C2OC(CO)C(O)C2O)n1 (configuration not stated)
[8]
  T/C: 124 % of control
endpoint: mean survival time, dose: 100.0 mg/kg/injection, schedule: Q04DX003 (ip), vehicle: saline
  T/C: 100 % of control
[9]
  T/C: 110 % of control
[10]
  T/C: 115 % of control
[11]
  T/C: 93 % of control
endpoint: mean survival time, dose: 400.0 mg/kg/injection, schedule: Q04DX003 (ip), vehicle: saline
  T/C: 110 % of control

## Cc1ccc(S(=O)(=O)N(CCCc2c(C)nc(N)nc2Cl)c2ccccc2)cc1
endpoint: mean survival time, dose: 50.0 mg/kg/injection, schedule: Q01DX001 (ip), vehicle: Klucel (hydroxypropylcellulose) (HPC)
  T/C: 100 % of control
endpoint: mean survival time, dose: 100.0 mg/kg/injection, schedule: Q01DX001 (ip), vehicle: Klucel (hydroxypropylcellulose) (HPC)
  T/C: 104 % of control
endpoint: mean survival time, dose: 200.0 mg/kg/injection, schedule: Q01DX001 (ip), vehicle: Klucel (hydroxypropylcellulose) (HPC)
  T/C: 96 % of control

## O=C(/C(=C\c1ccccc1)N1CCOCC1)c1ccc(Cl)cc1
[6]
  T/C: 95 % of control
[7]
  T/C: 97 % of control
[8]
  T/C: 86 % of control

## CCOC(=O)CSc1ccccc1
endpoint: mean survival time, dose: 25.0 mg/kg/injection, schedule: Q01DX005 (ip), vehicle: Klucel (hydroxypropylcellulose) (HPC)
  T/C: 93 % of control
endpoint: mean survival time, dose: 50.0 mg/kg/injection, schedule: Q01DX005 (ip), vehicle: Klucel (hydroxypropylcellulose) (HPC)
  T/C: 95 % of control
endpoint: mean survival time, dose: 100.0 mg/kg/injection, schedule: Q01DX001 (ip), vehicle: saline
  T/C: 102 % of control
endpoint: mean survival time, dose: 100.0 mg/kg/injection, schedule: Q01DX005 (ip), vehicle: Klucel (hydroxypropylcellulose) (HPC)
  T/C: 102 % of control
endpoint: mean survival time, dose: 200.0 mg/kg/injection, schedule: Q01DX001 (ip), vehicle: saline
  T/C: 100 % of control
endpoint: mean survival time, dose: 200.0 mg/kg/injection, schedule: Q01DX005 (ip), vehicle: Klucel (hydroxypropylcellulose) (HPC)
  T/C: 95 % of control
endpoint: mean survival time, dose: 400.0 mg/kg/injection, schedule: Q01DX001 (ip), vehicle: saline
  T/C: 100 % of control
endpoint: mean survival time, dose: 400.0 mg/kg/injection, schedule: Q01DX005 (ip), vehicle: Klucel (hydroxypropylcellulose) (HPC)
  T/C: 95 % of control

## [Cl][Pt+2][Cl].[NH-]CC(C[NH-])(Cc1ccccc1)Cc1ccccc1
endpoint: mean survival time, dose: 3.12 mg/kg/injection, schedule: Q04DX003 (ip), vehicle: saline
  T/C: 97 % of control
endpoint: mean survival time, dose: 6.25 mg/kg/injection, schedule: Q04DX003 (ip), vehicle: saline
  T/C: 103 % of control and 111 % of control
endpoint: mean survival time, dose: 12.5 mg/kg/injection, schedule: Q04DX003 (ip), vehicle: saline
  T/C: 115 % of control and 111 % of control
endpoint: mean survival time, dose: 25.0 mg/kg/injection, schedule: Q04DX003 (ip), vehicle: saline
  T/C: 115 % of control
[10]
  T/C: 172 % of control

## CC(=O)OCC1OC(OC(C)=O)C(NC(=O)NS(=O)(=O)c2ccc(C)cc2)C(OC(C)=O)C1OC(C)=O (configuration not stated)
endpoint: mean survival time, dose: 12.5 mg/kg/injection, schedule: Q01DX009 (ip), vehicle: other
  T/C: 105 % of control
endpoint: mean survival time, dose: 25.0 mg/kg/injection, schedule: Q01DX009 (ip), vehicle: other
  T/C: 98 % of control
endpoint: mean survival time, dose: 50.0 mg/kg/injection, schedule: Q01DX009 (ip), vehicle: other
  T/C: 93 % of control
[4]
  T/C: 94 % of control
[5]
  T/C: 94 % of control

## Cc1cccc(NC(=O)/C=C/C(=O)O)c1
[8]
  T/C: 94 % of control
[9]
  T/C: 100 % of control

## O=C(Nc1ccc(C2=NCCN2)cc1)c1ccc(C(=O)Nc2ccc(C3=NCCN3)cc2)cc1
endpoint: mean survival time, dose: 1.25 mg/kg/injection, schedule: Q01DX008 (iv), vehicle: other
  T/C: 103 % of control
endpoint: mean survival time, dose: 2.5 mg/kg/injection, schedule: Q01DX008 (iv), vehicle: other
  T/C: 103 % of control
endpoint: mean survival time, dose: 5.0 mg/kg/injection, schedule: Q01DX008 (iv), vehicle: other
  T/C: 108 % of control
endpoint: mean survival time, dose: 50.0 mg/kg/injection, schedule: Q04DX003 (ip), vehicle: water
  T/C: 112 % of control
endpoint: mean survival time, dose: 100.0 mg/kg/injection, schedule: Q01DX007 (ip), vehicle: water
  T/C: 153 % of control
endpoint: mean survival time, dose: 100.0 mg/kg/injection, schedule: Q04DX003 (ip), vehicle: water
  T/C: 118 % of control
endpoint: mean survival time, dose: 200.0 mg/kg/injection, schedule: Q01DX007 (ip), vehicle: water
  T/C: 170 % of control
endpoint: mean survival time, dose: 200.0 mg/kg/injection, schedule: Q01DX009 (ip), vehicle: water
  T/C: 186 % of control

## CCOc1ccccc1NC(=O)NCC(=O)NNC(=O)Nc1ccc(Cl)c([N+](=O)[O-])c1
[8]
  T/C: 92 % of control
[9]
  T/C: 92 % of control
[11]
  T/C: 97 % of control

## Cc1ccccc1NC(=O)CC#N
[6]
  T/C: 96 % of control
[7]
  T/C: 96 % of control
[8]
  T/C: 94 % of control

## Cc1ccc2c(C)nc(N=C(N)N)nc2c1
endpoint: mean survival time, dose: 18.8 mg/kg/injection, schedule: Q01DX009 (ip), vehicle: saline
  T/C: 103 % of control
endpoint: mean survival time, dose: 37.5 mg/kg/injection, schedule: Q01DX009 (ip), vehicle: saline
  T/C: 96 % of control

## OCCNCCO
[8]
  T/C: 93 % of control
[1]
  T/C: 97 % of control
[9]
  T/C: 93 % of control
[2]
  T/C: 103 % of control
[11]
  T/C: 96 % of control
[3]
  T/C: 107 % of control

## Oc1ccccc1C=NCCC[N-]CCCN=Cc1ccccc1O.[Co]
endpoint: mean survival time, dose: 6.25 mg/kg/injection, schedule: Q01DX009 (ip), vehicle: saline
  T/C: 102 % of control and 103 % of control
endpoint: mean survival time, dose: 12.5 mg/kg/injection, schedule: Q01DX009 (ip), vehicle: saline
  T/C: 100 % of control and 103 % of control
endpoint: mean survival time, dose: 25.0 mg/kg/injection, schedule: Q01DX009 (ip), vehicle: saline
  T/C: 110 % of control and 111 % of control
endpoint: mean survival time, dose: 50.0 mg/kg/injection, schedule: Q01DX009 (ip), vehicle: saline
  T/C: 113 % of control and 100 % of control
endpoint: mean survival time, dose: 100.0 mg/kg/injection, schedule: Q01DX009 (ip), vehicle: saline
  T/C: 104 % of control

## Cc1cc(NCCCCCCCNc2cc(C)nc3cc(N)ccc23)c2ccc(N)cc2n1
endpoint: mean survival time, dose: 0.78 mg/kg/injection, schedule: Q01DX009 (ip), vehicle: saline with Tween-80
  T/C: 123 % of control and 110 % of control
endpoint: mean survival time, dose: 1.56 mg/kg/injection, schedule: Q01DX009 (ip), vehicle: saline with Tween-80
  T/C: 121 % of control and 123 % of control
endpoint: mean survival time, dose: 6.25 mg/kg/injection, schedule: Q01DX009 (ip), vehicle: saline with Tween-80
  T/C: 153 % of control
endpoint: mean survival time, dose: 12.5 mg/kg/injection, schedule: Q01DX009 (ip), vehicle: saline with Tween-80
  T/C: 157 % of control and 183 % of control
[6]
  T/C: 104 % of control
endpoint: median survival time, dose: 0.78 mg/kg/injection, schedule: Q01DX009 (ip), vehicle: distilled water + Tween-80
  T/C: 119 % of control
endpoint: median survival time, dose: 0.78 mg/kg/injection, schedule: Q01DX009 (ip), vehicle: other
  T/C: 113 % of control
endpoint: median survival time, dose: 1.56 mg/kg/injection, schedule: Q01DX009 (ip), vehicle: distilled water + Tween-80
  T/C: 121 % of control
endpoint: median survival time, dose: 1.56 mg/kg/injection, schedule: Q01DX009 (ip), vehicle: other
  T/C: 120 % of control
endpoint: median survival time, dose: 6.25 mg/kg/injection, schedule: Q01DX009 (ip), vehicle: other
  T/C: 150 % of control
endpoint: median survival time, dose: 6.25 mg/kg/injection, schedule: Q01DX009 (ip), vehicle: water
  T/C: 157 % of control
endpoint: median survival time, dose: 12.5 mg/kg/injection, schedule: Q01DX009 (ip), vehicle: distilled water + Tween-80
  T/C: 167 % of control
endpoint: median survival time, dose: 12.5 mg/kg/injection, schedule: Q01DX009 (ip), vehicle: other
  T/C: 170 % of control
endpoint: median survival time, dose: 12.5 mg/kg/injection, schedule: Q01DX009 (ip), vehicle: water
  T/C: 180 % of control
